Results: publication PMC9005681, “Use of AD Informer Set compounds to explore validity of novel targets in Alzheimer's disease pathology” (Alzheimer's & Dementia : Translational Research & Clinical …, 2022)
Where “and” joins values, the source holds several entries; their conditions need not be identical. Identical values can stand only once.

Assays:
Test in all cases: PDSP GPCR panel primary binding assays at 10 μM
Conditions in all cases: primary assay
[1] = biological target: T1, cloned human or rodent CNS receptors, channels, and transporters (PDSP panel) (Homo sapiens, UniProt P25100)
T1 construct: expressed in transfected cells
T1 sequence (P25100 1-572): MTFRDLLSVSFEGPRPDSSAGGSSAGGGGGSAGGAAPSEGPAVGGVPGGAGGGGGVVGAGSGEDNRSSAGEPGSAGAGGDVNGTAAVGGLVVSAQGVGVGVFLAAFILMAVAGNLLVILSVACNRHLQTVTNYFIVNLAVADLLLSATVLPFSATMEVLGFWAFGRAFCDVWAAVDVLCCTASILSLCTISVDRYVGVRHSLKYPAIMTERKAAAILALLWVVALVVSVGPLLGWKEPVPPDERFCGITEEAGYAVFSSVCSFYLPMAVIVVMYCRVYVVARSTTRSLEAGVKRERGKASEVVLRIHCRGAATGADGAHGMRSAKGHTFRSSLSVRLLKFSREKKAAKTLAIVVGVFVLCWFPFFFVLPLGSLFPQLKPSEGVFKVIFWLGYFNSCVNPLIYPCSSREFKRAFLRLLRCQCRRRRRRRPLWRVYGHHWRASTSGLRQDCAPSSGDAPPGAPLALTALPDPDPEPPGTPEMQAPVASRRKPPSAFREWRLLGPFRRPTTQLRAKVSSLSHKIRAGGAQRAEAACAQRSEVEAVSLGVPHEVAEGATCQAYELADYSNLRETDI
Method: (§1) GPCR panel: Screening against the receptors within the PDSP panel offers an assessment of off-target pharmacological activity at cloned human or rodent CNS receptors, channels, and transporters that could confound CNS-related phenotypes. A total of 46–47 primary binding assays were run in quadruplicate on these compounds at 10 μM, with follow-up secondary binding assays in 11-point dose-response in triplicate for select compounds versus select receptors. Secondary binding assays were executed for all receptors where test compound displaced an average of >50% of radio-labeled standard ligand. As an exception, no secondary assays were carried out for H3, PBR, or GABAA. […]

[2] = biological target: T2, cloned human or rodent CNS receptors, channels, and transporters (PDSP panel) (Homo sapiens, UniProt P21728)
T2 construct: expressed in transfected cells
T2 sequence (P21728 whole entry): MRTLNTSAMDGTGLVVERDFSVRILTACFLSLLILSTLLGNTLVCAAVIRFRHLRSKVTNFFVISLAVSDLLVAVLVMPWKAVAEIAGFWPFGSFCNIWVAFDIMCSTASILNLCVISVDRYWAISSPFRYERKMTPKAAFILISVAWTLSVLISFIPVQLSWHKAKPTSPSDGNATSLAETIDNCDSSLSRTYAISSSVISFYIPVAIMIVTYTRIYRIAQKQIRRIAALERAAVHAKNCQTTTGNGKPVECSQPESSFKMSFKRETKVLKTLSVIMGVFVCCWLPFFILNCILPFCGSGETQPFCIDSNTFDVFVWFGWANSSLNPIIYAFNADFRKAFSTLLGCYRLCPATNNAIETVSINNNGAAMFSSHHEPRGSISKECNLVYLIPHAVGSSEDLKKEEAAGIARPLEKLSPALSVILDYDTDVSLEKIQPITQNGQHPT
Method: as §1

[3] = biological target: T3, cloned human or rodent CNS receptors, channels, and transporters (PDSP panel) (Homo sapiens, UniProt P08908)
T3 construct: expressed in transfected cells
T3 sequence (P08908 1-422): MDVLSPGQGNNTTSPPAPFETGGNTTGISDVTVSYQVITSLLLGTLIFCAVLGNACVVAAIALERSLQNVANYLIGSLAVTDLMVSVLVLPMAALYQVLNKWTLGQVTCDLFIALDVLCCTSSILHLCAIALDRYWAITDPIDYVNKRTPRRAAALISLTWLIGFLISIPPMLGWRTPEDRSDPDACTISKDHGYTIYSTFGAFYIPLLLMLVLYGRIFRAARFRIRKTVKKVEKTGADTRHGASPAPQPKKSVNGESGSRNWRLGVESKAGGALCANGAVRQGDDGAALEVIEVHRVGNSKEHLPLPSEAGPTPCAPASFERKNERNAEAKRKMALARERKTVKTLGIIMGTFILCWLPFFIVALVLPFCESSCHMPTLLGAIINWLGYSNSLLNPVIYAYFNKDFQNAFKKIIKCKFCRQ
Method: as §1

[4] = biological target: T4, cloned human or rodent CNS receptors, channels, and transporters (PDSP panel) (Homo sapiens, UniProt P41595)
T4 construct: expressed in transfected cells
T4 sequence (P41595 whole entry): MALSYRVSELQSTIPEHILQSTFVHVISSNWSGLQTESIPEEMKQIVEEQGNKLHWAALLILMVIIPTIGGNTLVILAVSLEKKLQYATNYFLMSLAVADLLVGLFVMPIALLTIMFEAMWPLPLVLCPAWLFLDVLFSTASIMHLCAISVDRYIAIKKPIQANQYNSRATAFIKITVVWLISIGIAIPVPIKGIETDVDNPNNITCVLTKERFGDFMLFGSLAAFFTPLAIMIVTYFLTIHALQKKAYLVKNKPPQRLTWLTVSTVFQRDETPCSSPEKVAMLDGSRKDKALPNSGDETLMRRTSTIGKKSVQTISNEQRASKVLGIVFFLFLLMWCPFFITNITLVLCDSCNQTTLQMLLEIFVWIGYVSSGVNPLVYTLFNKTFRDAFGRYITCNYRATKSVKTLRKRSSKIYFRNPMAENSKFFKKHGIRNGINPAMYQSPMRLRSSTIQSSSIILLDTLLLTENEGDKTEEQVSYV
Method: as §1

[5] = biological target: T5, cloned human or rodent CNS receptors, channels, and transporters (PDSP panel) (Homo sapiens, UniProt P28335)
T5 construct: expressed in transfected cells
T5 sequence (P28335 33-458): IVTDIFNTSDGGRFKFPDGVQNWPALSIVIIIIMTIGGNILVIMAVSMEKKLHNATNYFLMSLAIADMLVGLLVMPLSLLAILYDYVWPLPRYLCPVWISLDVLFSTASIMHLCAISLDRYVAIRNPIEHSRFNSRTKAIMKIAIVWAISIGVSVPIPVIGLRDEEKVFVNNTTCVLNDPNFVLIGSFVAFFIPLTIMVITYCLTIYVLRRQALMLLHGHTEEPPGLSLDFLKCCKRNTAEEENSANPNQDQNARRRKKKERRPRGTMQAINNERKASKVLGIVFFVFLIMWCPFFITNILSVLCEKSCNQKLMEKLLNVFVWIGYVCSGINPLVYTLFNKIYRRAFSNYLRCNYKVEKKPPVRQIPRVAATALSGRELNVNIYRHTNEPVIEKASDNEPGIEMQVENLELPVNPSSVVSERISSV
Method: as §1

[6] = biological target: T6, cloned human or rodent CNS receptors, channels, and transporters (PDSP panel) (Homo sapiens, UniProt P31645)
T6 construct: expressed in transfected cells
T6 sequence (P31645 whole entry): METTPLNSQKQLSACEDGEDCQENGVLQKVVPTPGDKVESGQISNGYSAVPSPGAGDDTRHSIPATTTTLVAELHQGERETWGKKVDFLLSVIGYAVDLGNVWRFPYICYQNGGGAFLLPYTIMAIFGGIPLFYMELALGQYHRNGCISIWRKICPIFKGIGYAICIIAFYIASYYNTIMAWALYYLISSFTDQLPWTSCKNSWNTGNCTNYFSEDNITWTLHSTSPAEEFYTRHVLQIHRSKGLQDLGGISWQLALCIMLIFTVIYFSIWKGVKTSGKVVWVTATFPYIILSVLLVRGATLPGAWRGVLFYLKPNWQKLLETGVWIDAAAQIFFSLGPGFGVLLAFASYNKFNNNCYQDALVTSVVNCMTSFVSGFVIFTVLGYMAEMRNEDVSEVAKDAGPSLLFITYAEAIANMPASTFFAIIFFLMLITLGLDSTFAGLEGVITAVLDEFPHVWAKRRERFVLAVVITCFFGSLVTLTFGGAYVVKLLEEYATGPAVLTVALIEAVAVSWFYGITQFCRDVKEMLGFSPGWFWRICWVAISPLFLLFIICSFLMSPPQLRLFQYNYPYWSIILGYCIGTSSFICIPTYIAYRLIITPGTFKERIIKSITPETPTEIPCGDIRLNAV
Method: as §1

[7] = biological target: T7, cloned human or rodent CNS receptors, channels, and transporters (PDSP panel) (Homo sapiens, UniProt P21918)
T7 construct: expressed in transfected cells
T7 sequence (P21918 whole entry): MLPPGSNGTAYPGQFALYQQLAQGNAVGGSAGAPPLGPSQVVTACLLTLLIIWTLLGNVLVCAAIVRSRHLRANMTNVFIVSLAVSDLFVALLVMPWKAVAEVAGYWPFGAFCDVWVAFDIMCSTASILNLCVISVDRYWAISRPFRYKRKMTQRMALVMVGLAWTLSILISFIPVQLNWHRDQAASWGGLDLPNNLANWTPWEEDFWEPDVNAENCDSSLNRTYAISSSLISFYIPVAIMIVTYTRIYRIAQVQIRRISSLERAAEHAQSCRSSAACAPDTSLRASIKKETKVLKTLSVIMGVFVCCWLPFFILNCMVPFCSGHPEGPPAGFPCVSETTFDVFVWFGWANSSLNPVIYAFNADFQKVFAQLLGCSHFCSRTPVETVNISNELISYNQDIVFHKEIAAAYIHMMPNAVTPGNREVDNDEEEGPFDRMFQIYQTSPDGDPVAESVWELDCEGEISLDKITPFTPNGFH
Method: as §1

[8] = biological target: T8, cloned human or rodent CNS receptors, channels, and transporters (PDSP panel) (Homo sapiens, UniProt P23975)
T8 construct: expressed in transfected cells
T8 sequence (P23975 whole entry): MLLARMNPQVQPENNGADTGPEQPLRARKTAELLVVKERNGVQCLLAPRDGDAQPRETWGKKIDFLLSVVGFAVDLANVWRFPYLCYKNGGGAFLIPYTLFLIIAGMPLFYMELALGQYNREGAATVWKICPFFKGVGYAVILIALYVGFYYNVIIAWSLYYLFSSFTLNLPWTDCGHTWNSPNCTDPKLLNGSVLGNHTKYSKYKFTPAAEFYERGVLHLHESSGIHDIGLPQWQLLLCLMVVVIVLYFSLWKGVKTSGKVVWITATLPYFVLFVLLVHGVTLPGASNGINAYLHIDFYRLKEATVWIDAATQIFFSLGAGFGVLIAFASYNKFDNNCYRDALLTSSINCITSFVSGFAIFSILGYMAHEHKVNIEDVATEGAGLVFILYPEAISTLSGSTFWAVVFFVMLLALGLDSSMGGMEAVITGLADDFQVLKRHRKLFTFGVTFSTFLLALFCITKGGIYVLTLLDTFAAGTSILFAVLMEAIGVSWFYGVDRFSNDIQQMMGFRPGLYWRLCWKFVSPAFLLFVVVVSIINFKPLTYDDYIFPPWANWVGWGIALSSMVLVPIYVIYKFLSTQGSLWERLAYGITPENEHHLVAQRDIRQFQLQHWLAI
Method: as §1

[9] = biological target: T9, cloned human or rodent CNS receptors, channels, and transporters (PDSP panel) (Homo sapiens, UniProt P28222)
T9 construct: expressed in transfected cells
T9 sequence (P28222 whole entry): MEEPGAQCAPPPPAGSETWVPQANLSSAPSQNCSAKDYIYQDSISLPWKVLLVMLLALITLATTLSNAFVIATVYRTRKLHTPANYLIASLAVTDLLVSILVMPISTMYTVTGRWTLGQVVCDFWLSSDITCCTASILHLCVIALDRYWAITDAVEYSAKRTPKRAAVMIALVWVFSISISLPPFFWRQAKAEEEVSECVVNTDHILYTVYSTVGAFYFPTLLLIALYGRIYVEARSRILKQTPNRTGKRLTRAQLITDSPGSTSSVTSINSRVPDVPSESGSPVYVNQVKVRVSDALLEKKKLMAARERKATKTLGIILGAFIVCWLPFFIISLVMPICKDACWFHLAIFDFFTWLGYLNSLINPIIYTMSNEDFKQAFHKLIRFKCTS
Method: as §1

`Cl.NC(=O)c1cnc(N[C@@H]2CCCC[C@@H]2N)nc1Nc1cccc(-n2nccn2)c1` [UNC10302682A, P505-15 (PRT06207 HCl)] was tested, and the “Inhibition 1” value ([1]; Receptor Alpha1D, 10 μM) was 22.56%, the “Inhibition 2” value ([1]; Receptor Alpha1D, 10 μM) was 13.18% and the “Inhibition 3” value ([1]; Receptor Alpha1D, 10 μM) was 20.43%. The “Inhibition 4” value ([1]; Receptor Alpha1D, 10 μM) was 14.74%, the Mean % ([1]; Receptor Alpha1D, 10 μM, mean of Inhibition 1-4) was 17.73% and the “Inhibition 1” value ([2]; Receptor D1, 10 μM) was 10.12%. For the same compound, the “Inhibition 2” value ([2]; Receptor D1, 10 μM) was 11.25%, the “Inhibition 3” value ([2]; Receptor D1, 10 μM) was 12.71% and the “Inhibition 4” value ([2]; Receptor D1, 10 μM) was 8.82%. For the same compound, the Mean % ([2]; Receptor D1, 10 μM, mean of Inhibition 1-4) was 10.73%, the “Inhibition 1” value ([3]; Receptor 5-HT1A, 10 μM) was 35.42% and the “Inhibition 2” value ([3]; Receptor 5-HT1A, 10 μM) was 0.09%. The “Inhibition 3” value ([3]; Receptor 5-HT1A, 10 μM) was 1.29%, the “Inhibition 4” value ([3]; Receptor 5-HT1A, 10 μM) was 21.46% and the Mean % ([3]; Receptor 5-HT1A, 10 μM, mean of Inhibition 1-4) was 14.57%. The “Inhibition 1” value ([4]; Receptor 5-HT2B, 10 μM) was 19.24%, the “Inhibition 2” value ([4]; Receptor 5-HT2B, 10 μM) was 3.3% and the “Inhibition 3” value ([4]; Receptor 5-HT2B, 10 μM) was -9.28%. The “Inhibition 4” value ([4]; Receptor 5-HT2B, 10 μM) was -13.48%, the Mean % ([4]; Receptor 5-HT2B, 10 μM, mean of Inhibition 1-4) was -0.06% and the “Inhibition 1” value ([5]; Receptor 5-HT2C, 10 μM) was 78.04%. The “Inhibition 2” value ([5]; Receptor 5-HT2C, 10 μM) was 64.79%, the “Inhibition 3” value ([5]; Receptor 5-HT2C, 10 μM) was 67.73% and the “Inhibition 4” value ([5]; Receptor 5-HT2C, 10 μM) was 44.66%. For the same compound, the Mean % ([5]; Receptor 5-HT2C, 10 μM, mean of Inhibition 1-4) was 63.81%, the “Inhibition 2” value ([6]; Receptor SERT, 10 μM) was 8.4% and 8.39% and the “Inhibition 3” value ([6]; Receptor SERT, 10 μM) was 11.88% and 10.26%. The “Inhibition 4” value ([6]; Receptor SERT, 10 μM) was 20.53% and 20.37%, the Mean % ([6]; Receptor SERT, 10 μM, mean of Inhibition 1-4) was 14.96% and 10.68% and the “Inhibition 1” value ([7]; Receptor D5, 10 μM) was 21.97%. The “Inhibition 2” value ([7]; Receptor D5, 10 μM) was 17.01%, the “Inhibition 3” value ([7]; Receptor D5, 10 μM) was 7.24% and the “Inhibition 4” value ([7]; Receptor D5, 10 μM) was 14.53%. The Mean % ([7]; Receptor D5, 10 μM, mean of Inhibition 1-4) was 15.19%, the “Inhibition 1” value ([8]; Receptor NET, 10 μM) was 84.07% and 84.11% and the “Inhibition 2” value ([8]; Receptor NET, 10 μM) was 85.74% and 79.57%. For the same compound, the “Inhibition 3” value ([8]; Receptor NET, 10 μM) was 83.91% and 77.54%, the “Inhibition 4” value ([8]; Receptor NET, 10 μM) was 89.74% and the Mean % ([8]; Receptor NET, 10 μM, mean of Inhibition 1-4) was 85.87% and 80.58%. The “Inhibition 1” value ([9]; Receptor 5-HT1B, 10 μM) was 53.66%, the “Inhibition 2” value ([9]; Receptor 5-HT1B, 10 μM) was 22.41% and the “Inhibition 3” value ([9]; Receptor 5-HT1B, 10 μM) was 27.71%. For the same compound, the “Inhibition 4” value ([9]; Receptor 5-HT1B, 10 μM) was 32.24% and the Mean % ([9]; Receptor 5-HT1B, 10 μM, mean of Inhibition 1-4) was 34.01%.

`CC(=O)N1CCC(NC(=O)NC23CC4CC(CC(C4)C2)C3)CC1` [UNC10302683A, AR9281] was tested, and the Mean % ([1]; Alpha1D, mean inhibition) was -8.81%, the “Inhibition 1” value ([1]; Alpha1D, replicate 1) was 7.07% and the “Inhibition 2” value ([1]; Alpha1D, replicate 2) was -12.11%. The “Inhibition 3” value ([1]; Alpha1D, replicate 3) was -12.82%, the “Inhibition 4” value ([1]; Alpha1D, replicate 4) was -17.37% and the Mean % ([2]; D1, mean inhibition) was -14.57%. For the same compound, the “Inhibition 1” value ([2]; D1, replicate 1) was -3.64%, the “Inhibition 2” value ([2]; D1, replicate 2) was -20.64% and the “Inhibition 3” value ([2]; D1, replicate 3) was -32.3%. The “Inhibition 4” value ([2]; D1, replicate 4) was -1.7%, the Mean % ([3]; 5-HT1A, mean inhibition) was -6.08% and the “Inhibition 1” value ([3]; 5-HT1A, replicate 1) was 5.09%. The “Inhibition 2” value ([3]; 5-HT1A, replicate 2) was -13.88%, the “Inhibition 3” value ([3]; 5-HT1A, replicate 3) was -5.6% and the “Inhibition 4” value ([3]; 5-HT1A, replicate 4) was -9.91%. The Mean % ([4]; 5-HT2B, mean inhibition) was -14.63%, the “Inhibition 1” value ([4]; 5-HT2B, replicate 1) was 28.05% and the “Inhibition 2” value ([4]; 5-HT2B, replicate 2) was -19.35%. The “Inhibition 3” value ([4]; 5-HT2B, replicate 3) was -37.81%, the “Inhibition 4” value ([4]; 5-HT2B, replicate 4) was -29.42% and the Mean % ([5]; 5-HT2C, mean inhibition) was -19.88%. For the same compound, the “Inhibition 1” value ([5]; 5-HT2C, replicate 1) was -9.33%, the “Inhibition 2” value ([5]; 5-HT2C, replicate 2) was -11.78% and the “Inhibition 3” value ([5]; 5-HT2C, replicate 3) was -20.61%. The “Inhibition 4” value ([5]; 5-HT2C, replicate 4) was -37.79%, the Mean % ([6]; SERT, mean inhibition) was -8.86% and -6.55% and the “Inhibition 1” value ([6]; SERT, replicate 1) was -9.63% and -17.8%. For the same compound, the “Inhibition 2” value ([6]; SERT, replicate 2) was -14.12% and -5.23%, the “Inhibition 3” value ([6]; SERT, replicate 3) was -7.44% and -8.27% and the “Inhibition 4” value ([6]; SERT, replicate 4) was -4.24% and 5.12%. The Mean % ([7]; D5, mean inhibition) was -11.88%, the “Inhibition 1” value ([7]; D5, replicate 1) was -7.18% and the “Inhibition 2” value ([7]; D5, replicate 2) was -13.14%. For the same compound, the “Inhibition 3” value ([7]; D5, replicate 3) was -18.03%, the “Inhibition 4” value ([7]; D5, replicate 4) was -9.17% and the Mean % ([8]; NET, mean inhibition) was 6.47% and 1.67%. For the same compound, the “Inhibition 1” value ([8]; NET, replicate 1) was -14.58% and 25.31%, the “Inhibition 2” value ([8]; NET, replicate 2) was -2.12% and 13.5% and the “Inhibition 3” value ([8]; NET, replicate 3) was 2.28% and -19.09%. The “Inhibition 4” value ([8]; NET, replicate 4) was 40.3% and -13.05%, the Mean % ([9]; 5-HT1B, mean inhibition) was -0.64% and the “Inhibition 1” value ([9]; 5-HT1B, replicate 1) was 23.19%. For the same compound, the “Inhibition 2” value ([9]; 5-HT1B, replicate 2) was -3.93%, the “Inhibition 3” value ([9]; 5-HT1B, replicate 3) was -10.42% and the “Inhibition 4” value ([9]; 5-HT1B, replicate 4) was -11.4%.
